Laboratory results from patent US10501562B2, “Co-initiator and co-monomer for use in preparing polymer related compositions, methods of manufacture, and methods of use” (University of Kansas, priority 2015, dated 2019).

What was measured:
[1] = Chemical stability of amine co-initiators by 1H NMR in DMSO-d6/water; type: physicochemical; settings: 100 days storage at 25° C., 0.04 M in DMSO-d6/deionized water 80/20 wt/wt
Method: The chemical stability of three amine co-initiators (EDMAB, DMAEMA, and TUMA) was characterized by ^1H NMR spectroscopy, which were obtained on a Bruker Advance DRX 500 spectrometer (Bruker AXS Inc., Madison, Wis.) equipped with a broadband probe. Deuterated dimethyl sulfoxide (DMSO-d6)/deionized water (80/20 wt/wt) was used as the solvent. The NMR spectra of 0.04 M amine samples were monitored as a function of storage time at 25° C. The mixed (DMSO/water) solvent was used because of its ability to dissolve EDMAB and TUMA, which are hydrophobic compounds.

[2] = during 24 hours; cited from earlier work

Structure (SMILES): CCOC(=O)c1ccc(N(C)C)cc1 [EDMAB, Ethyl-4-(dimethylamino) benzoate]
- degraded (chemical stability) [1]: No degradation was detected

Structure (SMILES): C=C(C)C(=O)OCCNC(=O)OC(C)CN(CC(C)OC(=O)NCCOC(=O)C(=C)C)CC(C)OC(=O)NCCOC(=O)C(=C)C (stereo not shown) [TUMA, 8-(2-(((2-(methacryloyloxy)ethyl)carbamoyl)oxy)propyl)-6,10-dimethyl-4,12-dioxo-5,11-dioxa-3,8,13-triazapentadecane-1,15-diyl bis(2-methylacrylate)]
- degraded (chemical stability) [1]: No degradation was detected

Structure (SMILES): C=C(C)C(=O)OCCN(C)C [DMAEMA, 2-(dimethylamino) ethyl methacrylate]
- degraded (chemical stability) [1]: 37.6%
- degradation in the presence of water [2]: up to 82%
